Read-outs that look alike come from different tables or passages of the source.
Columns and labels:
[1] = target: T1, EGFR wild type (Homo sapiens, UniProt P00533); experiment: Inhibition of EGFR wild type biochemical enzymatic activity (HTRF); conditions: EGFR WT, 1 mM ATP, 1 h, room temperature, read-out: IC50 (nM) @WT
T1 construct: purchased Carna Bio
Summary of the method: (§1)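 Time-resolved FRET assay of EGFR substrate phosphorylation. Conditions: 1 μM TK substrate-biotin, 1 mM ATP, Mg/Mn buffer, 1 h at RT. IC50 from 4-parameter curve fit.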

[2] = target: T2, EGFR L858R (Homo sapiens, UniProt P00533, L858R); experiment: Inhibition of EGFR L858R biochemical enzymatic activity (HTRF); conditions: 1 mM ATP, 1 h, room temperature, read-out: IC50 (nM) @L858R
T2 construct: purchased Carna Bio
Summary of the method: as §1

[3] = target: T3, EGFR L858R/T790M (Homo sapiens, UniProt P00533, L858R/T790M); experiment: Inhibition of EGFR L858R/T790M biochemical enzymatic activity (HTRF); conditions: EGFR L858R-T790M, 1 mM ATP, 1 h, room temperature, read-out: IC50 (nM) @L858R-T790M
T3 construct: purchased Carna Bio
Summary of the method: as §1

[4] = target: T4, EGFR Exon19Del (Homo sapiens, UniProt P00533, DEL746-750); experiment: Inhibition of EGFR Exon19Del biochemical enzymatic activity (HTRF); conditions: EGFR Del19, 1 mM ATP, 1 h, room temperature, read-out: IC50 @Del19
T4 construct: purchased Carna Bio
Summary of the method: as §1

[5] = target: T5, EGFR Exon19Del/T790M (Homo sapiens, UniProt P00533, DEL746-750/T790M); experiment: Inhibition of EGFR Exon19Del/T790M biochemical enzymatic activity (HTRF); conditions: EGFR Del19-T790M, 1 mM ATP, 1 h, room temperature, read-out: IC50 (nM) @Del19-T790M
T5 construct: purchased Carna Bio
Summary of the method: as §1

[6] = target: T6, EGFR[T790M/C797S/L858R] (Homo sapiens, UniProt P00533, C797S/L858R/T790M); experiment: Inhibition of EGFR[T790M/C797S/L858R] biochemical enzymatic activity (HTRF); conditions: EGFR T790M-C797S-L858R, 1 mM ATP, 1 h, room temperature, read-out: IC50 (nM) @T790M- C797S - L858R
T6 construct: purchased Carna Bio
Summary of the method: as §1

[7] = target: T7, EGFR[T790M/C797S/d746-750] (Homo sapiens, UniProt P00533, C797S/DEL746-750/T790M); experiment: Inhibition of EGFR[T790M/C797S/d746-750] biochemical enzymatic activity (HTRF); conditions: EGFR T790M-C797S-Del19, 1 mM ATP, 1 h, room temperature, read-out: IC50 (nM) @T790M - C797S - Del19
T7 construct: purchased Carna Bio
Summary of the method: as §1

[8] = target: T8, EGFR (d746-750 C797S) (Homo sapiens, UniProt P00533, C797S/DEL746-750); experiment: Inhibition of EGFR (d746-750 C797S) biochemical enzymatic activity (HTRF); conditions: EGFR Del19-C797S, 1 mM ATP, 1 h, room temperature, read-out: IC50 (nM) @Del19-C797S
T8 construct: purchased signalchem
Summary of the method: as §1

[9] = target: T9, EGFR (C797S L858R) (Homo sapiens, UniProt P00533, C797S/L858R); experiment: Inhibition of EGFR (C797S L858R) biochemical enzymatic activity (HTRF); conditions: EGFR L858-C797S, 1 mM ATP, 1 h, room temperature, read-out: IC50 (nM) @L858-C797S
T9 construct: purchased signalchem
Summary of the method: as §1

[10] = tested on: Ba/F3 cells expressing EGFR mutations; experiment: Cell proliferation assay, Ba/F3 cells expressing EGFR mutations (CellTiter-Glo, 72 hours); format: cell-based; conditions: Mus musculus, BaF3, 72 h, CellTiter-Glo
Summary of the method: (§2)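 In RPMI1640 medium (PC-9 with 10% FBS), each cell line was seeded at its own density: Ba/F3 5000 and PC-9 500 per well. A compound series was added the next day, with a time-zero viability plate read in parallel. Percent proliferation was subtracted for G0 and referenced to DMSO, and GI50 was derived by curve fitting.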

[11] = tested on: PC-9; experiment: Cell proliferation assay, PC-9 cells (CellTiter-Glo, 72 hours); format: cell-based; conditions: Homo sapiens, PC-9, 72 h, PC9 cells, CellTiter-Glo, read-out: PC9 GI50
Summary of the method: as §2

[12] = tested on: A-431; experiment: Cell proliferation GI50, A-431 cells (Table 6); format: cell-based; conditions: Homo sapiens, A-431, A-431 cells
[13] = BaF3 cells, EGFR DEL19-C797S, read-out: DEL19-C797S/BaF3 GI50
[14] = BaF3 cells, EGFR DEL19-T790-C797S, read-out: DEL19-T790-C797S/BaF3 GI50
[15] = BaF3 cells, EGFR L858R, read-out: L858R/BaF3 GI50
[16] = BaF3 cells, EGFR L858R-C797S, read-out: L858R-C797S/BaF3 GI50
[17] = BaF3 cells, EGFR L858R-T790-C797S, read-out: L858R-T790-C797S/BaF3 GI50
[18] = BaF3 cells, EGFR L858R-T790M, read-out: L858R-T790M/BaF3 GI50
[19] = EGFR DEL19-T790M, read-out: DEL19-T790M GI50

T7 sequence (P00533 with tags, fused parts or gaps DEL746-750/T790M/C797S limits assumed): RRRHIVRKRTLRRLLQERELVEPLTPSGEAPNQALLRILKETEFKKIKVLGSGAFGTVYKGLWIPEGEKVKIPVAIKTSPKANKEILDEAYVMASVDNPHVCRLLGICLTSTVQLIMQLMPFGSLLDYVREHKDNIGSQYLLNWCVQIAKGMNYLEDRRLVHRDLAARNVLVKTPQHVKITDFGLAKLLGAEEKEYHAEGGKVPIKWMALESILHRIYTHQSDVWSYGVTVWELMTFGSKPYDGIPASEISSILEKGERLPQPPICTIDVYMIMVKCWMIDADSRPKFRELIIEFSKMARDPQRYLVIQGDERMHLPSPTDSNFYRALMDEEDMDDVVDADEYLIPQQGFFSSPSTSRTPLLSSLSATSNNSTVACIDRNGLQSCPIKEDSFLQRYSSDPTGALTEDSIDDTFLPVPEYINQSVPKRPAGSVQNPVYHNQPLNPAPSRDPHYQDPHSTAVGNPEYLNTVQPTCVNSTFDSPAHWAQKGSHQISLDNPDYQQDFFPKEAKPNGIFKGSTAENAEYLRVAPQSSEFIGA
T8 sequence (P00533 with tags, fused parts or gaps DEL746-750/C797S limits assumed): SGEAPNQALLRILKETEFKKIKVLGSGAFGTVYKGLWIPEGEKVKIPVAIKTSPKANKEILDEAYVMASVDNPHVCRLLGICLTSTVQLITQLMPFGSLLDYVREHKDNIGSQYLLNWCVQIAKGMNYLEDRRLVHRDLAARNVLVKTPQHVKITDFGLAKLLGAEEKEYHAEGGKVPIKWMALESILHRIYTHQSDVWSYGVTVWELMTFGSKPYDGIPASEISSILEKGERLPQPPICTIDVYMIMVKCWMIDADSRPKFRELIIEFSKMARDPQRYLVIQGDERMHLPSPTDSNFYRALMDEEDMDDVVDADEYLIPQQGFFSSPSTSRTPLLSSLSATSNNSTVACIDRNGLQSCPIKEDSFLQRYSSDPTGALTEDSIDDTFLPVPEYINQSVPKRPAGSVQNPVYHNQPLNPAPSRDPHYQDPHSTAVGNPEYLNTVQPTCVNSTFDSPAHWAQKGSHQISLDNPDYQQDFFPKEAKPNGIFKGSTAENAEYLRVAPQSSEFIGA
T3 sequence (P00533 25-1210 T790M/L858R): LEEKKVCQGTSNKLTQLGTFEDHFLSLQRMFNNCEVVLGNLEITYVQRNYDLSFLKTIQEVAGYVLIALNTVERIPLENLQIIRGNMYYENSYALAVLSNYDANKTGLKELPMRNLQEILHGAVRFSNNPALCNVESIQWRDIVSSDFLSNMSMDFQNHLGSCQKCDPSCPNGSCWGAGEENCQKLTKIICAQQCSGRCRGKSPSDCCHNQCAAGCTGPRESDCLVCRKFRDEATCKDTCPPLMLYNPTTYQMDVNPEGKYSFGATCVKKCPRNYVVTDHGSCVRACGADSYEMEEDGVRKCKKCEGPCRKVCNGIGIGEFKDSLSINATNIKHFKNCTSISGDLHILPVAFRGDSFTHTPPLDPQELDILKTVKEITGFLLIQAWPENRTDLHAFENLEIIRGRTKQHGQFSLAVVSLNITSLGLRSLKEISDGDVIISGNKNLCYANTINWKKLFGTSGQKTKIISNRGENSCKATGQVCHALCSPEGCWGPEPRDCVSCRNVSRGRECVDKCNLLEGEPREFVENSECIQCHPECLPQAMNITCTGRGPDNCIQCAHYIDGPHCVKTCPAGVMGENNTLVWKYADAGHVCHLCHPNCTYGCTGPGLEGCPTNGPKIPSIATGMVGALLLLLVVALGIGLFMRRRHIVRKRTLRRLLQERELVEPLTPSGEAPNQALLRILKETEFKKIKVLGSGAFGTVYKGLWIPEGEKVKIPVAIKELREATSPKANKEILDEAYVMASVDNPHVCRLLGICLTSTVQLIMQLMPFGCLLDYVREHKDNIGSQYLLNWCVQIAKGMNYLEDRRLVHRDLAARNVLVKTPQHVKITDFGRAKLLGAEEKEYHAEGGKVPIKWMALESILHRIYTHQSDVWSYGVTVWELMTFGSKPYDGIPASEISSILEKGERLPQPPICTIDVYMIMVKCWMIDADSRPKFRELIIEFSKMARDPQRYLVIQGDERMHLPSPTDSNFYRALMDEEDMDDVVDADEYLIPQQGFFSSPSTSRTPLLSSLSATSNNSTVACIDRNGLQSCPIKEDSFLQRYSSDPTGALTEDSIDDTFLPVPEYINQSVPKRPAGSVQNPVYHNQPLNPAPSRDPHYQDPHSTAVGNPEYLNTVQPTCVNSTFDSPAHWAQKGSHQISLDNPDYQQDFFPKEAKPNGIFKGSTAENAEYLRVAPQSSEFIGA
T2 sequence (P00533 25-1210 L858R): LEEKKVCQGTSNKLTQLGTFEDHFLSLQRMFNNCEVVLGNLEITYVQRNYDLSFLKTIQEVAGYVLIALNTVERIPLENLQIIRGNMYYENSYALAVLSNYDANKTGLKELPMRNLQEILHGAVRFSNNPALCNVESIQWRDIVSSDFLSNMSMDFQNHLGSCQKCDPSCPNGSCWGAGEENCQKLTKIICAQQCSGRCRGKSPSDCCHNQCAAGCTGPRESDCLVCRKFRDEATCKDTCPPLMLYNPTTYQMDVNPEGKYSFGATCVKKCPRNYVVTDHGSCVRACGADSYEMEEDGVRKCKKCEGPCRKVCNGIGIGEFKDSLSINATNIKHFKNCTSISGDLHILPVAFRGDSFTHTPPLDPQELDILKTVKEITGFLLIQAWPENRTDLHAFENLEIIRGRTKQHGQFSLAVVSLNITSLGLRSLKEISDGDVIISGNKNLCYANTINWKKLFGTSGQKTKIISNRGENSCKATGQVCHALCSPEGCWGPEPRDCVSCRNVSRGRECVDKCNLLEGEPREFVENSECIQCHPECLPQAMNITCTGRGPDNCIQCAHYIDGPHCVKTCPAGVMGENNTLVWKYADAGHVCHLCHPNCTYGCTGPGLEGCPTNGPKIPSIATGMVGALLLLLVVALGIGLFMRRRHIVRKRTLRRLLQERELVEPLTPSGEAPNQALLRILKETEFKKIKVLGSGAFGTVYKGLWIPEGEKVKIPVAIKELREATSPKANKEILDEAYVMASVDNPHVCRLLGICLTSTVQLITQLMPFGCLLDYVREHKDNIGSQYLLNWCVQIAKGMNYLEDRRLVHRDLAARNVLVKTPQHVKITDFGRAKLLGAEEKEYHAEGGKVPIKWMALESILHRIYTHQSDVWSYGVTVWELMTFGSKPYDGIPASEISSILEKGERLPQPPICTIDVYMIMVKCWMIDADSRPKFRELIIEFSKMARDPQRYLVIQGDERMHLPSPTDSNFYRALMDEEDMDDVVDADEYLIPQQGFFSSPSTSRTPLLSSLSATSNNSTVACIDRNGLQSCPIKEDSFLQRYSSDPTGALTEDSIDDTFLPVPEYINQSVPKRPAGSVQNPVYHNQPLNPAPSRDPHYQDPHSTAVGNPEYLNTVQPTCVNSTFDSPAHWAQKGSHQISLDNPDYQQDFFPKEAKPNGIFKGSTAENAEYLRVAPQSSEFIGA
T6 sequence (P00533 25-1210 T790M/C797S/L858R): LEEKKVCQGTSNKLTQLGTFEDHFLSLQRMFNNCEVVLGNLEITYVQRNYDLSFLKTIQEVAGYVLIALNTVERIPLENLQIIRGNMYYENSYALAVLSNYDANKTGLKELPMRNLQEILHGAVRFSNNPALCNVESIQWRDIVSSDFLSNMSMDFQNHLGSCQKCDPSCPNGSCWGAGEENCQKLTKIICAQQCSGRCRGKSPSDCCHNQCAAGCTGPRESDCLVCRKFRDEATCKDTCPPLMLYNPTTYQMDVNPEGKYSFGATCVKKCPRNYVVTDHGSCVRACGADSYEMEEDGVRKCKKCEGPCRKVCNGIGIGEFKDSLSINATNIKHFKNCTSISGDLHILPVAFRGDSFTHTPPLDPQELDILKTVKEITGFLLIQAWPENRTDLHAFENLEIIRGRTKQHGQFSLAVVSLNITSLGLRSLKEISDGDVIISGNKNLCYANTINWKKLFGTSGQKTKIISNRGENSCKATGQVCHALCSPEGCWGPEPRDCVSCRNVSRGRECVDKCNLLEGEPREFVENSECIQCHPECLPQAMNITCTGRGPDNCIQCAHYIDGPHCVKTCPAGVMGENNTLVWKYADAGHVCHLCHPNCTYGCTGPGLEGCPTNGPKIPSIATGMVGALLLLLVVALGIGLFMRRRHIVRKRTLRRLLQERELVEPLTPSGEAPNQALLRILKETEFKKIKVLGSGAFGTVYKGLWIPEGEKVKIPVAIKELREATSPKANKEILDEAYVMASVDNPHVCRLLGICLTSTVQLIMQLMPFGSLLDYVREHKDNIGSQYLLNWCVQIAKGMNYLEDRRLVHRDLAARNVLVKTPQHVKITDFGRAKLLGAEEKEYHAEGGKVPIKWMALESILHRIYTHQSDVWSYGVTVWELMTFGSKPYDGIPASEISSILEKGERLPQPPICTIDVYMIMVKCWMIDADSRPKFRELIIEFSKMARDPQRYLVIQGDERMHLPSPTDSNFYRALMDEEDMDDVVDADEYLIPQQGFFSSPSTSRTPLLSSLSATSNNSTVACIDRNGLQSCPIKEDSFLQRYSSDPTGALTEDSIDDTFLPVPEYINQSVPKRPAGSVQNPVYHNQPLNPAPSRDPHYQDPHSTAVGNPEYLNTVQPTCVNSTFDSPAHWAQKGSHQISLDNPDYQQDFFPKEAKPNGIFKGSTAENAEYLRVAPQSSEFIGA

Structure (SMILES) | IC50 [1] [nM] | IC50 [2] [nM] | IC50 [3] [nM] | IC50 [4] [nM] | IC50 [5] [nM] | IC50 [6] [nM] | IC50 [7] [nM] | IC50 [8] [nM] | IC50 [9] [nM] | GI50 [10, 13] [nM] | GI50 [10, 14] [nM] | GI50 [10, 15] [nM] | GI50 [10, 16] [nM] | GI50 [10, 17] [nM] | GI50 [10, 18] [nM] | GI50 [10, 19] [nM] | GI50 [11] [nM] | GI50 [12] [nM]
CN1CCN(c2ccc3nc4n(c3c2)CC2(CCCOc3c(cnn3C)-c3cc(cn(C)c3=O)C(=O)N4)CC2)CC1 [Example A18, 5′,26′-dimethyl-16′-(4-methylpiperazin-1-yl)-7′-oxa-4′,5′,13′,20′,22′,26′-hexaazaspiro[cyclopropane-1,11′-pentacyclo[22.3.1.0^{2,6}.0^{13,21}.0^{14,19}]octacosan]-1′(28′),2′(6′),3′,14′,16′,18′,20′,24′-octaene-23′,27′-dione] | > 5000 | 1370 | 1140 | 54 | 41 | 1720 | 44 | 91 | 929 | 52.9 | 246 | 194 | 169 | 309 | 249 | 187 | 565 | 377
CC1CCCCOc2c(cnn2C)-c2cc(cn(C)c2=O)C(=O)Nc2nc3ccc(N4CCN(C)CC4)cc3n21 (stereo not drawn) [Example A19, 5,12,26-Trimethyl-16-(4-methylpiperazin-1-yl)-7-oxa-4,5,13,20,22,26-hexaazapentacyclo[22.3.1.0^{2,6}.0^{13,21}.0^{14,19}]octacosa-1(28),2(6),3,14,16,18,20,24-octaene-23,27-dione] | > 5000 | 625 | 632 | 22 | 29 | 214 | 16 | 19 | 283 | 6.6 | 113 | 147 | 98 | 246 | 85 | 85 | 856 | 1340
CCn1ncc2c1OCCC[C@@H](C)Cn1c(nc3ccc(N4CCN(C)CC4)cc31)NC(=O)c1cc-2c(=O)n(C)c1 [Example A21, (11R)-5-ethyl-11,26-dimethyl-16-(4-methylpiperazin-1-yl)-7-oxa-4,5,13,20,22,26-hexaazapentacyclo[22.3.1.0^{2,6}.0^{13,21}.0^{14,19}]octacosa-1(28),2(6),3,14,16,18,20,24-octaene-23,27-dione] | 446 | 37 | 18 | 4.6 | 7.3 | 7.2 | 7.1 | 3.7 | 15 | 2.1 | 22 | 19 | 26 | 7.2 | 6.7 | 24 | 24 | 1110
C[C@@H]1CCCOc2c(cnn2C2CC2)-c2cc(cn(C)c2=O)C(=O)Nc2nc3ccc(N4CCN(C)CC4)cc3n2C1 [Example A22, (11R)-5-Cyclopropyl-11,26-dimethyl-16-(4-methylpiperazin-1-yl)-7-oxa-4,5,13,20,22,26-hexaazapentacyclo[22.3.1.0^{2,6}.0^{13,21}.0^{14,19}]octacosa-1(28),2(6),3,14,16,18,20,24-octaene-23,27-dione] | 1200 | 86 | 6.3 | 9.1 | 6.2 | 5.8 | 6.5 | 6.5 | 25 | 9.3 | 11 | 30 | 22 | 9.6 | 51 | 20 | 87 | 2290

Results, then the compound that gave them:

IC50 [1] [nM] | IC50 [2] [nM] | IC50 [3] [nM] | IC50 [4] [nM] | IC50 [5] [nM] | IC50 [6] [nM] | IC50 [7] [nM] | IC50 [8] [nM] | IC50 [9] [nM] | GI50 [10, 13] [nM] | GI50 [10, 14] [nM] | GI50 [10, 15] [nM] | GI50 [10, 16] [nM] | GI50 [10, 17] [nM] | GI50 [10, 18] [nM] | GI50 [10, 19] [nM] | GI50 [11] [nM] | GI50 [12] [nM] | Structure (SMILES)
> 5000 | 207 | 12 | 4.7 | 3 | 2.7 | 2.7 | 3 | 61 | 4 | 11 | 104 | 32 | 12 | 151 | 10 | 208 | 2820 | C[C@@H]1CCCOc2c(cnn2C)-c2cc(cn(C)c2=O)C(=O)Nc2nc3ccc(N4CCNCC4)c(Cl)c3n2C1 [Example A23, (11R)-15-chloro-5,11,26-trimethyl-16-(piperazin-1-yl)-7-oxa-4,5,13,20,22,26-hexaazapentacyclo[22.3.1.0^{2,6}.0^{13,21}.0^{14,19}]octacosa-1(28),2(6),3,14,16,18,20,24-octaene-23,27-dione]
323 | 24 | 2 | 1.6 | 1.6 | 1.6 | 1.6 | 1 | 6 | 1.4 | 13 | 2.4 | 9.3 | 5.6 | 16 | 9.2 | 12 | 486 | C[C@@H]1CCCOc2c(cnn2C)-c2cc(cn(C)c2=O)C(=O)Nc2nc3ccc(N4CCN(C)CC4)cc3n2C1 [Example A25, (11R)-5,11,26-trimethyl-16-(4-methylpiperazin-1-yl)-7-oxa-4,5,13,20,22,26-hexaazapentacyclo[22.3.1.0^{2,6}.0^{13,21}.0^{14,19}]octacosa-1(28),2(6),3,14,16,18,20,24-octaene-23,27-dione]
1090 | 68 | 19 | 8 | 5 | 16 | 5.6 | 2.9 | 33 | 2.1 | 16 | 18 | 4.6 | 12 | 28 | 18 | 18 | 405 | C[C@@H]1CCCOc2c(cnn2C)-c2cc(cn(C)c2=O)C(=O)Nc2nc3ccc(N4CCOCC4)cc3n2C1 [Example A26, (11R) 5,11,26-trimethyl-16-(morpholin-4-yl)-7-oxa-4,5,13,20,22,26-hexaazapentacyclo[22.3.1.0^{2,6}.0^{13,21}.0^{14,19}]octacosa-1(28),2(6),3,14,16,18,20,24-octaene-23,27-dione]
